Results: patent publication US20200121605A1, “METHODS AND COMPOSITIONS FOR LOCALIZED INTRADUCTAL DRUG DELIVERY TO THE BREAST AND REGIONAL LYMPH NODES” (South Dakota Board of Regents, priority 2018, published 2020)

Tests used:
[1] = rat, in vivo
Experimental: (§1) For In vivo studies, the levels of 4-hydroxytamoxifen and endoxifen were measured using LC-MS.
(§2) The tissues were mixed with TRIS HCl buffer (1 ml/mg) and homogenized at 6000 rpm for 3 minutes under ice. For lymph nodes, sonication (45% amplitude in pulse mode 1 sec on and 1 sec off for 2 minutes under ice) was used to homogenize the tissue. From this, 200 μl of tissue homogenate was mixed with 800 μl of acetonitrile to precipitate proteins (1:4 v/v). This was then vortexed for 1-2 minutes followed by sonication for 3 minutes. The plasma was then centrifuged at 10,000 rpm at 4° C. for 10 minutes. The supernatant was collected and evaporated to dryness under gentle stream of Argon. The residue was then reconstituted with 100 μl of Ammonium Formate, pH 3.5: Acetonitrile (7:3 v/v). This was vortexed for 1 minute followed by sonication for 2 minutes. The reconstituted mixture was centrifuged at 10,000 rpm for 10 minutes at 4° C. The supernatant was collected and 15 μl was injected into LC-MS to determine drug levels.

[2] = design: species or system rats; conditions: rat, in vivo
Experimental: as §1, §2

[3] = Intraductal retention of Cy5.5 labelled PLGA formulations, whole body imaging; type: in vivo, Female SD rats
Experimental: Female SD rats were anesthetized using isoflurane and the hair around the nipple region was removed using hair removing cream. The keratin plug from the inguinal mammary gland (5th or 6th nipple from the head) was removed gently holding the nipple using tweezers and wiping with 70% alcohol.
For microspheres and nanoparticles, around 0.5 to 1.5 mg particles was dispersed in PBS containing 0.5% w/v Tween 80 and vortexed for 30-60 seconds. For In situ implants, 50-100 μl of gel containing an equivalent amount of Cy5.5 was used. After dilation of the nipple orifice, 50-100 μl of the formulation was injected intraductally into the inguinal mammary glands using 27-31 G needle under a surgical microscope.
The animals were imaged using Bruker in Vivo Xtreme II optical imaging system at predetermined time points (0 to 96 hours) to study the distribution of the carrier system in the breast. Following instrument settings were used: Excitation/Emission: 690/750 nm; Bin: 1×1 pixels; Exposure time: 20 seconds, f-stop: 1.2, FOV: 19. Fluorescence intensities were plotted against time by choosing a constant ROI around the injected mammary gland and subtracting the fluorescence intensity from the contralateral mammary gland.

[4] = Imaging of regional (axillary) lymph nodes after intraductal injection; type: in vivo, female Sprague Dawley rats
Experimental: Intraductal injection was performed following the method described in the previous section. Regional lymph nodes (Axillary lymph node) were identified and dissected at 2 hours, 24 hours and 48 hours after intraductal injection. The lymph nodes were then imaged using whole body animal imaging system to determine the localization of formulation in the lymph nodes.

[5] = Organ distribution of tamoxifen PLGA formulations; type: in vivo; conditions: end of the treatment
Experimental: (§3) For In vivo studies, the levels of Tamoxifen and two major metabolites 4-hydroxytamoxifen (4HT) and endoxifen (EDX) were measured using LC-MS. (Liquid chromatography-Mass spectroscopy)
(§4) The mammary gland and all the other vital organs (liver, spleen, kidney, lungs, heart, and uterus) were weighed and washed with PBS to remove blood. The tissues were mixed with TRIS HCl buffer (1 ml/mg) and homogenized at 6000 rpm for 3 minutes under ice. For lymph nodes, sonication (45% amplitude in pulse mode 1 sec on and 1 sec off for 2 minutes under ice) was used for homogenization. From this, 200 μl of tissue homogenate was mixed with 800 μl of acetonitrile (1:4 v/v) for protein precipitation. This was vortexed for 1-2 minutes followed by sonication for 3 minutes. The homogenate was centrifuged at 10,000 rpm at 4° C. for 10 minutes. The supernatant was collected and evaporated to dryness under gentle stream of Argon. The residue was reconstituted with 100 μl of ammonium formate (pH 3.5): acetonitrile (7:3 v/v). This was vortexed for 1 minute followed by sonication for 2 minutes. The reconstituted mixture was centrifuged at 10,000 rpm for 10 minutes at 4° C. The supernatant was gently removed and 15 μl was injected into LC-MS for quantification.

[6] = Plasma levels of tamoxifen and metabolites after intraductal injection of tamoxifen formulations (LC-MS); type: in vivo
Experimental: as §3
For determining drug levels in plasma, 100 μl of plasma was mixed with 400 μl of acetonitrile to precipitate proteins (1:4 v/v). This was then vortexed for 1-2 minutes followed by sonication for 3 minutes. The plasma was then centrifuged at 10,000 rpm at 4° C. for 10 minutes. The supernatant was collected and evaporated to dryness under gentle stream of Argon. The residue was then reconstituted with 100 μl of ammonium formate, (pH 3.5): acetonitrile (7:3 v/v). This was vortexed for 1 minute followed by sonication for 2 minutes. The reconstituted mixture was centrifuged at 10,000 rpm for 10 minutes at 4° C. The supernatant was collected and 15 μl was injected into LC-MS to determine drug levels.

[7] = Breast (mammary gland) concentration of tamoxifen and 4-hydroxytamoxifen after intraductal injection; type: in vivo
Experimental: as §3, §4

[8] = intraductal retention, Cy 5.5 fluorescence intensity profile, 0 to 96 hours
[9] = breast (mammary gland), tamoxifen in breast

4-hydroxytamoxifen [Free 4-hydroxy tamoxifen]
retention in the mammary gland, in words [1]: very low levels | 4 hydroxy tamoxifen in the tissues [2]: undetectable | systemic exposure of endoxifen in all the tissues [2]: higher systemic exposure

Cy 5.5
no fluorescence signals recorded after ([3]; breast ducts, non-invasive imaging): 4 h | k [3, 8]: 0.40 ± 0.03 h⁻¹ | t1/2 (retention half-life) [3, 8]: 1.70 ± 0.16 h | localization (fluorescence) in the axillary lymph nodes up to [4]: ≤ 1 h

CC/C(=C(\c1ccccc1)c1ccc(OCCN(C)C)cc1)c1ccccc1 [Free TMX, tamoxifen]
uterine exposure of tamoxifen and metabolites [5]: resulted in uterine exposure | duration of detectable plasma tamoxifen [6]: 3 days | AUC ([6]; Tamoxifen in plasma): 116 ± 43.3 ng·h/mL | AUMC ([6]; Tamoxifen in plasma): 4546.37 ± 466.103 ng · hr^2/ml | Cmax ([6]; Tamoxifen in plasma): 8.9 ± 1.55 ng/mL | MRT ([6]; Tamoxifen in plasma): 47.7 ± 3.15 h | Tmax ([6]; Tamoxifen in plasma): 0.3 h | half-life ([6]; Tamoxifen in plasma): 19.5 ± 4.24 h | ke ([6]; Tamoxifen in plasma): 0.015 ± 0.002 h⁻¹ | not retained in the mammary glands after [7]: 3 days | retained in the mammary gland for only [7]: 72 h | AUC [7, 9]: 125000 ± 3690 ng·h/mL | Cmax [7, 9]: 4370 ± 67.7 ng/mL | MRT [7, 9]: 26.5 ± 4.3 h | Tmax [7, 9]: 12 h | half-life [7, 9]: 14.87 ± 0.04 h | ke ([7]; tamoxifen in breast): 0.020 ± 0.0005
